# Test results published in patent publication US10934302B1, “SHP2 phosphatase inhibitors and methods of use thereof” (Relay Therapeutics, Inc., priority 2018, dated 2021).
# Biological target: SHP2 (Homo sapiens (Human), UniProt Q06124)
# Assay: SHP2 allosteric inhibition assay (DiFMUP prompt fluorescence)
# Assay type: biochemical
# Conditions: 0.25 nM SHP2 activated with 0.5 μM peptide IRS1_pY1172(dPEG8)pY1222; substrate DiFMUP
row,SMILES,IC50
1,"N[C@@H]1c2ccccc2C[C@]12CC=C(c1cnc3c(N4CCCc5ncccc54)n[nH]c3n1)CC2 [Example 175, (1S,1'S)-4-(3-(3,4-dihydro-1,5-naphthyridin-1(2H)-yl)-1H-pyrazolo[3,4-b]pyrazin-6-yl)-1′,3′-dihydrospiro[cyclohex[3]ene-1,2′-inden]-1′-amine]",1000 to 10000 nM
2,Cc1nc2c(N3CCCc4c3ccn(C)c4=O)n[nH]c2nc1N1CCC2(CC1)Cc1cc(F)ccc1[C@H]2N [Example 245],1000 to 10000 nM
3,N[C@@H]1c2ccccc2CC12CCN(c1cc(C(F)(F)F)c3nncn3n1)CC2 [Example 230],1000 to 10000 nM
4,Nc1nccc(Sc2ccc(N3CCC4(CC3)Oc3cc(F)ccc3[C@H]4N)cn2)c1Cl [Example 224],50 to 1000 nM
5,"Cc1nc2c(N3CCCCC3)n[nH]c2nc1N1CCC2(CC1)Oc1ccccc1[C@H]2N [Example 162, (3R)-1′-[5-methyl-3-(piperidin-1-yl)-1H-pyrazolo[3,4-b]pyrazin-6-yl]-3H-spiro[1-benzofuran-2,4′-piperidin]-3-amine]",> 10000 nM
6,N[C@@H]1c2cccc(F)c2CC12CCN(c1cnc3cn[nH]c3n1)CC2 [Example 23],1000 to 10000 nM
7,Cn1cnc2c(N3CCC4(CC3)Cc3ccccc3[C@H]4N)ncnc21 [Example 184],50 to 1000 nM
8,N[C@@H]1c2ccccc2CC12CCN(c1cnc(OCc3cccc4cccnc34)cn1)CC2 [Example 198],> 10000 nM
9,"Cc1nc2c(N3CCCC3)n[nH]c2nc1N1CCC2(CC1)Cc1ccccc1[C@H]2N [Example 254, (1S)-1′-[5-methyl-3-(pyrrolidin-1-yl)-1H-pyrazolo[3,4-b]pyrazin-6-yl]-1,3-dihydrospiro[indene-2,4′-piperidin]-1-amine]",> 10000 nM
10,"Cc1cc(-c2nccs2)cc(N2CCC3(CC2)Cc2ccccc2[C@H]3N)n1 [Example 270, (S)-1′-(6-methyl-4-(thiazol-2-yl)pyridin-2-yl)-1,3-dihydrospiro[indene-2,4′-piperidin]-1-amine]",1000 to 10000 nM
11,"N[C@@H]1c2ccccc2CC12CCN(c1cnc3c(ccn3-c3cccc4ncccc34)n1)CC2 [Example 192, (3S)-1′-[5-(quinolin-5-yl)-5H-pyrrolo[2,3-b]pyrazin-2-yl]-1,3-dihydrospiro[indene-2,4′-piperidin]-3-amine]",1000 to 10000 nM
12,"NC1c2ccccc2C[C@]12CC[C@H](c1ccc(SCC3CC3)nc1)CC2 (single isomer, unassigned) [Example 281, (1s, 3'S, 4R)-4-{6-[(cyclopropylmethyl)sulfanyl]pyridin-3-yl}-1′,3′-dihydrospiro[cyclohexane-1,2′-inden]-3′-amine]",50 to 1000 nM
13,"N[C@H]1c2ccccc2C[C@]12CC[C@@H](c1cnc(Sc3ccnc(Cl)c3Cl)cn1)CC2 (single isomer, unassigned) [Example 277, (1r, 4r)-4-(5-((2,3-dichloropyridin-4-yl)thio)pyrazin-2-yl)-1′,3′-dihydrospiro[cyclohexane-1,2′-inden]-1′-amine]",50 to 1000 nM
14,"N[C@@H]1c2ccccc2CC12CCN(c1ncc(N3CCCc4ncccc43)nc1CO)CC2 [Example 211, {3-[(3S)-3-amino-1,3-dihydrospiro[indene-2,4′-piperidin]-1′-yl]-6-(1,2,3,4-tetrahydro-1,5-naphthyridin-1-yl)pyrazin-2-yl}methanol]",50 to 1000 nM
15,"N[C@H]1c2ccccc2C[C@@]12CC=C(c1cnc3c(N4CCCc5ncccc54)n[nH]c3n1)CC2 (single isomer, unassigned) [Example 172]",1000 to 10000 nM
16,Cn1c(N2CCC3(CC2)Cc2ccccc2[C@H]3N)nc2[nH]nc(Sc3cccc(Cl)c3Cl)c2c1=O [Example 178],> 10000 nM
17,"N[C@@H]1c2ccccc2CC12CCN(c1cnc3c(N4CCCc5cc(OS(=O)(=O)F)ccc54)n[nH]c3n1)CC2 [Example 65, 1-{6-[(3S)-3-amino-1,3-dihydrospiro[indene-2,4′-piperidin]-1′-yl]-1H-pyrazolo[3,4-b]pyrazin-3-yl}-1,2,3,4-tetrahydroquinolin-6-yl sulfurofluoridate]",≤ 50 nM
18,Cn1ccc2c(c1=O)CCCN2c1n[nH]c2nc(N3CCC4(CC3)Cc3c(F)cccc3[C@H]4N)cnc12 [Example 53],≤ 50 nM
19,"N[C@@H]1c2ccccc2CC12CCN(c1ncc(Sc3cccc(Cl)c3Cl)c(=O)[nH]1)CC2 [Example 261, 2-[(3S)-3-amino-1,3-dihydrospiro[indene-2,4′-piperidin]-1′-yl]-5-[(2,3-dichlorophenyl)sulfanyl]-3,4-dihydropyrimidin-4-one]",≤ 50 nM
20,N[C@@H]1c2ccccc2CC12CCN(c1nc3[nH]nc(Sc4ccnc(Cl)c4Cl)c3nc1CO)CC2 [Example 88],≤ 50 nM
21,"CC(=O)N1CCN(c2n[nH]c3nc(N4CCC5(CC4)Cc4ccccc4[C@@H]5N)cnc23)c2ccccc21 [Example 1, 1-(4-{6-[(3R)-3-amino-1,3-dihydrospiro[indene-2,4′-piperidin]-1′-yl]-1H-pyrazolo[3,4-b]pyrazin-3-yl}-1,2,3,4-tetrahydroquinoxalin-1-yl)ethan-1-one]",≤ 50 nM
22,"N[C@@H]1c2ccccc2CC12CCN(c1cnc(OC3CCCC3)cn1)CC2 [Example 251, (3S)-1′-[5-(cyclopentyloxy)pyrazin-2-yl]-1,3-dihydrospiro[indene-2,4′-piperidin]-3-amine]",> 10000 nM

# Other lines, results leading:
row,IC50,SMILES
1,≤ 50 nM,Cc1nc(N2CCC3(CC2)Cc2ccccc2[C@H]3N)cnc1N1CCCc2ncccc21 [Example 197]
2,≤ 50 nM,"N[C@@H]1c2ccccc2CC12CCN(c1nc3[nH]ncc3nc1CO)CC2 [Example 104, (S)-(6-(1-amino-1,3-dihydrospiro[indene-2,4′-piperidin]-1′-yl)-1H-pyrazolo[3,4-b]pyrazin-5-yl)methanol]"
3,≤ 50 nM,"N[C@@H]1c2ccccc2CC12CCN(c1cnc(SCC3CCCC3)cn1)CC2 [Example 264, (S)-1′-(5-((cyclopentylmethyl)thio)pyrazin-2-yl)-1,3-dihydrospiro[indene-2,4′-piperidin]-1-amine]"
4,≤ 50 nM,"N[C@@H]1c2ccccc2CC12CCN(c1cnc(Sc3cc[nH]c(=O)c3Cl)cn1)CC2 [Example 131, 4-({5-[(3S)-3-amino-1,3-dihydrospiro[indene-2,4′-piperidin]-1′-yl]pyrazin-2-yl}sulfanyl)-3-chloro-1,2-dihydropyridin-2-one]"
5,≤ 50 nM,"Nc1nc(N2CCC3(CC2)Cc2ccccc2[C@H]3N)cnc1-c1cccc(Cl)c1Cl [Example 22, (3S)-1′-[6-amino-5-(2,3-dichlorophenyl)pyrazin-2-yl]-1,3-dihydrospiro[indene-2,4′-piperidin]-3-amine]"
6,≤ 50 nM,Nc1nccc(Sc2cnc3c(n2)OC[C@H]2C[C@@]4(CCN32)Oc2ccccc2[C@@H]4N)c1Cl [Example 221]
7,≤ 50 nM,N[C@@H]1c2ccccc2CC12CCN(C1=Nc3ncc(C4CC4)cc3C1)CC2 [Example 229]
8,≤ 50 nM,N[C@@H]1c2ccccc2CC12CCN(c1nc3[nH]nc(N4CCCCC4)c3nc1CO)CC2 [Example 103]
9,≤ 50 nM,N#Cc1ccc2c(c1)N([C@H]1C[C@H](O)C1)CCN2c1n[nH]c2nc(N3CCC4(CC3)Cc3ccccc3C4N)cnc12 (some centres unmarked) [Example 35]
10,≤ 50 nM,N[C@@H]1c2ccccc2CC12CCN(c1cc(OC(F)F)c3nccn3c1)CC2 [Example 202]
11,≤ 50 nM,N[C@@H]1c2ccccc2OC12CCN(c1cnc(Sc3ccnc(Cl)c3F)cn1)CC2 [Example 95]
12,≤ 50 nM,Nc1nccc(Sc2cnc3c(n2)OC[C@H]2C[C@@]4(CCN32)Oc2ccccc2[C@H]4N)c1Cl [Example 222]
13,≤ 50 nM,"Cc1nc(N2CCC3(CC2)Oc2ccccc2[C@H]3N)c(CO)nc1-c1cccc(Cl)c1Cl [Example 268, (R)-(3-(3-amino-3H-spiro[benzofuran-2,4′-piperidin]-1′-yl)-6-(2,3-dichlorophenyl)-5-methylpyrazin-2-yl)methanol]"
14,≤ 50 nM,"N[C@@H]1c2ccccc2CC12CCN(c1cnc3c(-c4ccnc(Cl)c4F)n[nH]c3n1)CC2 [Example 67, (3S)-1′-[3-(2-chloro-3-fluoropyridin-4-yl)-1H-pyrazolo[3,4-b]pyrazin-6-yl]-1,3-dihydrospiro[indene-2,4′-piperidin]-3-amine]"
15,≤ 50 nM,Cc1nc(N2CCCc3ncccc32)cnc1N1CCC2(CC1)Cc1ccccc1[C@H]2N [Example 196]
16,≤ 50 nM,"N[C@@H]1c2ccccc2CC12CCN(c1cnc(SC3CC3)cn1)CC2 [Example 241, (S)-1′-(5-(cyclopropylthio)pyrazin-2-yl)-1,3-dihydrospiro[indene-2,4′-piperidin]-1-amine]"
17,≤ 50 nM,N[C@@H]1c2ccccc2CC12CN(c1cnc3c(N4CCCc5ncccc54)n[nH]c3n1)C2 [Example 115]
18,≤ 50 nM,N[C@@H]1c2ccccc2OC12CCN(c1cnc3c(N4CCCc5nc(-c6ncco6)ccc54)n[nH]c3n1)CC2 [Example 61]
19,≤ 50 nM,"Nc1cnc(CO)c(N2CCC3(CC2)Cc2ccccc2[C@H]3N)n1 [Example 123, {5-amino-3-[(3S)-3-amino-1,3-dihydrospiro[indene-2,4′-piperidin]-1′-yl]pyrazin-2-yl}methanol]"
20,≤ 50 nM,N[C@@H]1c2ccccc2CC12CCN(c1cnc3c(-c4cccc5ncccc45)n[nH]c3n1)CC2 [Example 68]
21,≤ 50 nM,"Cn1c(N2CCC3(CC2)Cc2ccccc2[C@H]3N)ncc(Sc2cccc(Cl)c2Cl)c1=O [Example 242, (S)-2-(1-amino-1,3-dihydrospiro[indene-2,4′-piperidin]-1′-yl)-5-((2,3-dichlorophenyl)thio)-3-methylpyrimidin-4(3H)-one]"
22,≤ 50 nM,Cn1cc(-c2ccc3c(n2)CCCN3c2n[nH]c3nc(N4CCC5(CC4)Cc4cccc(F)c4[C@H]5N)cnc23)cn1 [Example 48]
23,≤ 50 nM,N[C@@H]1c2ccccc2CC12CCN(c1cnc(SC3CCC3)cn1)CC2 [Example 236]
24,≤ 50 nM,N[C@@H]1c2ccc(F)cc2OC12CCN(c1cnc(SCC3CC3)cn1)CC2 [Example 240]
25,≤ 50 nM,"N#Cc1cccc2c1[C@@H](N)C1(CCN(c3cnc4c(N5CCCc6ncccc65)n[nH]c4n3)CC1)C2 [Example 105, (3S)-3-amino-1′-[3-(1,2,3,4-tetrahydro-1,5-naphthyridin-1-yl)-1H-pyrazolo[3,4-b]pyrazin-6-yl]-1,3-dihydrospiro[indene-2,4′-piperidine]-4-carbonitrile]"
